In US11771636B2, “Composition for promoting hair growth comprising adiponectin-derived peptide” (JUNGJINHO EFFECT INC., priority 2018, dated 2023):

Tests used:
[1] = system: human hair follicles-derived outer root sheath cells; assay: MTT cell division and activation in outer root sheath cells; type: cell-based; details: peptide 0.5 μg/ml and 5 μg/ml, 48 hours, minoxidil 1 mM positive control
Experimental: (§1) Primary cultured human hair follicles-derived dermal papilla cells and outer root sheath cells were subcultured to passages 2 to 3, and then treated with minoxidil, which has been conventionally used as an agent for preventing hair loss and treating hair growth as a positive control at a concentration of 1 mM, and separately treated with the adiponectin-derived peptide of the present invention prepared in Example 1 at concentrations of 0.5 μg/ml and 5 μg/ml. After 48 hours, the activated living cells were stained with an MTT solution and compared with a negative control group, and the degree of division and activation of the cells was confirmed.

[2] = system: human hair follicles-derived dermal papilla cells; assay: MTT cell division and activation in dermal papilla cells; type: cell-based; details: peptide 0.5 μg/ml and 5 μg/ml, 48 hours, minoxidil 1 mM positive control
Experimental: as §1

Substance	cell division of outer root sheath cells [1]	cell division of dermal papilla cells [2]
GLYYF (P5 peptide from adiponectin (GLYYF)) [adiponectin-derived 5-mer peptide]	more excellent effect than minoxidil	more excellent effect than minoxidil
NIPGL (P10 peptide from adiponectin (NIPGL)) [adiponectin-derived 5-mer peptide]	more excellent effect than minoxidil	more excellent effect than minoxidil
